Laboratory results taken from US20170128459A1, “PHARMACEUTICAL COMPOSITION CONTAINING SIRT2 INHIBITOR” (Industrial Cooperation Foundation Chonbuk National …, priority 2014, published 2017).

How the values were obtained:
[1] = test system: mouse proximal tubule cells; assay: Cell proliferation test (XTT); type: cell-based; conditions: 24 hours, 1% FBS
Experimental: Specifically, the cell proliferation test was performed by treating mouse proximal tubule cells with trypsin, the cells were put in a 96-well plate at 1×10^3 cells for each well, cultured for 24 hours at 37° C., the culture medium was removed, and each of AGK2, AK-1, cisplatin, cisplatin+AGK2, and cisplatin+AK-1 was treated with a culture medium containing 1% FBS. After culturing for 24 hours at 37° C., the degree of cell proliferation was measured using a cell proliferation kit (Cell proliferation Kit II, XTT, Roche, Mannheim, Germany). As cells proliferate, the amount of color-developing material of mitochondria within cells increases, and thus the absorbance increases. Therefore, the proliferation of the mouse proximal tubule cells was determined based on the absorbance, and the results are provided in FIG. 34.

[2] = test system: mouse proximal tubule cells; assay: Cell damage caused by cisplatin (number of adhesion cells, microscopy); type: cell-based
Experimental: To confirm if an SIRT2 inhibitor has an effect of inhibiting cell damage caused by cisplatin, the effects of AGK2 and AK-1, which are SIRT2 inhibitors, when the mouse proximal tubule cells were treated with cisplatin were examined. Specifically, mouse proximal tubule cells were treated with AGK2 (10 μM) and AK-1 (10 μM), which are SIRT2 inhibitors, 30 minutes prior to being treated with cisplatin (20 μg/ml) for 48 hours, and the cells were visualized by a Zeiss Z1 microscope.

CCL2 = CCL2 mRNA expression by qRT-PCR in LPS-treated mouse proximal tubule cells; type: cell-based; conditions: AK-1 10 μM 30 minutes prior to 1-hour LPS (10 μg/ml); compared with LPS-increased expression
Experimental: (§1) Mouse proximal tubule cells, which were donated by Dr Lloyd G. Cantley (Yale University School of Medicine, New Haven, Conn., US), were prepared by culturing, in an α-MEM medium containing added fetal bovine serum at 10% (vol/vol), under conditions including a humidified atmospheric condition of 5% CO2 and 95% air and a temperature condition of 37° C.
(§2) To remove the SIRT2 gene from the cells, siRNA (100 pmol, Dharmacon ON-TARGETplus SMARTpool, Dharmacon Inc., CO, US) and 10 μl Lipofectamine® 2000 (Invitrogen™, Carlsbad, Calif., US) were diluted in an Opti-MEM medium for the cell treatment, and, 7 hours later, the cells were transferred into a cell culture medium for cell culture. 2 days after the initiation of the cell culture, the cells were collected and a decrease in an SIRT2 protein was observed therefrom.
1, 3, and 6 hours after the treatment with the LPS and the CB following the SIRT2 siRNA treatment, the cell culture medium, RNA, and proteins were collected to perform quantitative real-time PCR (qRT-PCR) and an enzyme linked immunosorbent assay.
The CCL2 expression pattern was observed by the method of Example 4.
(§3) Mouse proximal tubule cells were treated with AK-1 (10 μM), which is an SIRT2 inhibitor, 30 minutes prior to a 1-hour treatment with an LPS (10 μg/ml). The cells were collected and CXCL2 and CCL2 mRNA expression levels thereof were determined through qRT-PCR.

CXCL2 = CXCL2 mRNA expression by qRT-PCR in LPS-treated mouse proximal tubule cells; type: cell-based; conditions: AK-1 10 μM 30 minutes prior to 1-hour LPS (10 μg/ml); compared with LPS-increased expression
Experimental: as §1, §2
1, 3, and 6 hours after the treatment with the LPS and the CB following the SIRT2 siRNA treatment, the cell culture medium, RNA, and proteins were collected to perform quantitative real-time PCR (qRT-PCR) and an enzyme linked immunosorbent assay. […]
as §3

ICAM-1 = assay: Western blot of ICAM-1 in kidney tissues after cisplatin; type: in vivo, mouse; conditions: kidney tissues of WT mice administered cisplatin
Experimental: (§4) An investigation was performed to see if the expression of ICAM-1 and VCAM-1 genes, which are molecules related to inflammatory response, in an experimental group administered cisplatin is regulated by an SIRT2 gene. Western blotting was performed by the method of the above Example 11, using ICAM-1 (Santa Cruz Biotechnology, Santa Cruz, Calif., US) and VCAM-1 (Santa Cruz Biotechnology, Santa Cruz, Calif., US) antibodies.

VCAM-1 = assay: Western blot of VCAM-1 in kidney tissues after cisplatin; type: in vivo, mouse; conditions: kidney tissues of WT mice administered cisplatin
Experimental: as §4

[3] = Survival rate after cisplatin administration; type: in vivo, mouse; conditions: control group (SIRT2+/+) administered cisplatin
Description: Based on the result, it can be seen that the knocking out an SIRT2 gene inhibits kidney injuries caused by cisplatin.

acetyl p53 = assay: Western blot of acetyl p53 in kidney tissues after cisplatin; type: in vivo; conditions: kidney of mouse having SIRT2 treated with cisplatin
Experimental: (§5) Generally, kidney injuries caused by cisplatin are affected by apoptosis. To determine the effect of SIRT2 gene knockout on controlling apoptosis caused by cisplatin, the acetylation of caspase-3 and p53 was observed through western blotting.
(§6) Kidney tissues were obtained by the method of the above Example 9-2 and then were homogenized to extract proteins therefrom, and the caspase-3 and acetyl p53 protein expression patterns were determined using caspase-3 and acetyl p53 antibodies (Cell Signaling Technology, Danvers, Mass. US). The same blots were peeled off to determine the exact amount of proteins using actin (Sigma-Aldrich Co. LLC., St Louis, Mo., US) and p53 (Cell Signaling Technology, Inc.).

caspase-3 = assay: Western blot of caspase-3 in kidney tissues after cisplatin; type: in vivo, mouse; conditions: kidney tissues of WT mice administered cisplatin
Experimental: as §5, §6

[4] = used together with cisplatin, compared with cisplatin alone
[5] = SIRT2 inhibitor 10 μM 30 minutes prior to cisplatin 20 μg/ml for 48 hours, compared with cisplatin alone

SMILES	cell proliferation (XTT absorbance) [1, 4]	number of adhesion cells [2, 5]	CCL2 mRNA expression level (CCL2)	CXCL2 mRNA expression level (CXCL2)	cell proliferation (XTT absorbance) ([1]; cisplatin alone)	ICAM-1 expression (ICAM-1)	VCAM-1 expression (VCAM-1)	survival [3]	p53 acetylation (acetyl p53)	cleaved caspase-3 expression (caspase-3)	number of adhesion cells ([2]; cisplatin 20 μg/ml for 48 hours alone)
O=C(Nc1cccc2ncccc12)/C(O)=C/c1ccc(-c2cc(Cl)ccc2Cl)o1 [AGK2]	significantly increased	significantly increased									
O=C(Nc1cccc([N+](=O)[O-])c1)c1cccc(S(=O)(=O)N2CCCCCC2)c1 [AK-1]	significantly increased	significantly increased	decrease	decrease							
N.N.[Cl][Pt][Cl] [cisplatin, cis-diammine-dichloroplatinum [II]]					decreased	increased	increased	all mice died in 6 days	increased	increased	decreased
